Measured values published in BigSolDB 2.1.

O=C(O)/C=C\C=C/C(=O)O
solubility (mole fraction)
Conditions | in acetic acid | in ethanol | in isopropanol | in water
298.15 K | 0.0029 | 0.0117 | 0.0101 | 0.0002
303.15 K | 0.0034 | 0.0139 | 0.0107 | 0.0004
308.15 K | 0.0039 | 0.016 | 0.0124 | 0.0006
313.15 K | 0.0044 | 0.0184 | 0.0139 | 0.0008
318.15 K | 0.0052 | 0.0236 | 0.0156 | 0.0014
323.15 K | 0.0057 | 0.0293 | 0.017 | 0.0021
328.15 K | 0.0065 | 0.037 | 0.0204 | 0.0031
333.15 K | 0.0076 | 0.0478 | 0.0244 | 0.005
338.15 K | 0.0086 | 0.0595 | 0.0274 | 0.0068
343.15 K | 0.01 | 0.0715 | 0.0297 | 0.0106
348.15 K | 0.0125 | 0.0847 | 0.0342 | 0.0153
